Results taken from patent US20080220450A1, “Population Based Prediction Methods for Immune Response Determinations and Methods for Verifying Immunological Response Data” (Danisco US, Inc., Genencor Division, priority 2004, published 2008).

Experiments:
[1] = test system: CD4+ T-cells and dendritic cells; experiment: I-MUNE assay: CD4+ T-cell proliferation to 15-mer peptide sets presented by dendritic cells; assay type: cell-based, human; design: Structure Value: scale not given here; quantitative response among responders: unit not given here; conditions: for Average percent response to epitope peptide: Table 6, repeat tests of the epitope peptide on discrete donor groups; for Response/Peptide: SI>2.95; for effect of substitution on percent of responders to the epitope: peptide #49 variants, 69 donors; for statistical significance of the peptide response: conservative and non-conservative Poisson methods; for response to the peptide: beta-lactamase peptide set, 3× above the background
Experimental: All peptides were obtained from a commercial source (Mimotopes, San Diego, C-A). For the I-MUNE® assay system described herein, 15-mer peptides offset by 3 amino acids that described the entire sequence of the proteins of interest were synthesized in a multipin format (See, Maeji et al., J. Immunol. Meth., 134:23-33 [1990]). Peptides were resuspended in DMSO at approximately 1 to 2 mg/ml, and stored at −70° C. prior to use. Each peptide was tested at least in duplicate, although for small peptide sets (e.g., Ber e 1), the peptides were routinely tested in triplicate.
Volunteer donor human blood buffy coat samples were obtained from two commercial sources (Stanford Blood Center, Palo Alto, Calif., and the Sacramento Medical Foundation, Sacramento, Calif.). Buffy coat samples were further purified by density separation. Each sample was HLA typed for HLA-DR and HLA-DQ using a commercial PCR-based kit (Bio-Synthesis).
Monocytes were purified by adherence to plastic in AIM V medium (Gibco/Life Technologies). Adherent cells were cultured in AIM V media containing 500 units/ml of recombinant human IL-4 (Endogen) and 800 units/ml recombinant human GM-CSF (Endogen) for 5 days. On day 5, recombinant human IL-1α (Endogen) and recombinant human TNF-α (Endogen) were added to 50 units/ml and 0.2 units/ml, respectively. On day 7, the fully matured dendritic cells were treated with 50 μg/ml mitomycin C (Sigma) for 1 hour at 37° C. Treated dendritic cells were dislodged with 50 mM EDTA in PBS, washed in AIM V medium, counted, and resuspended in AIM V media at 2×10^5 cells/ml.
CD4^+ T-cells were purified by negative selection from frozen aliquots of human peripheral blood mononuclear cells (PBMC) using Cellect CD4 columns (Cedarlane). […] CD4^+ T-cells were resuspended in AIM V media at 2×10^6 cells per ml.
CD4^+ T-cells and dendritic cells were plated in round-bottomed 96 well format plates at 100 μl of each cell mix per well. Peptide was added to a final concentration of approximately 5 ug/ml in 0.25-0.5% DMSO. Control wells contained 0.5% DMSO without added peptide. Each peptide was tested in duplicate. Cultures were incubated at 37° C., in 5% CO2 for 5 days. On day 5, 0.5 uCi of tritiated thymidine (NEN DuPont) was added to each well. On day 6, the cultures were harvested onto glass fiber mats using a TomTec manual harvester (TomTec), then processed for scintillation counting. Proliferation was assessed by determining the average counts per minute (CPM) value for each set of duplicate wells (TriLux Beta). This method is also described in U.S. Pat. No. 6,218,165 and Stickler et al., J. Immunother. 23: 654-660 (2000), both of which are herein incorporated by reference.
For each individual buffy coat sample, the average CPM values obtained in the I-MUNE® assay for all of the peptides were analyzed. The average CPM values for each peptide were divided by the average CPM value for the control (DMSO only) wells to determine the “stimulation index” (SI). Donors were tested with each peptide set until an average of at least two responses per peptide were compiled. The data for each protein was graphed showing the percent responders to each peptide within the set. A positive response was collated if the SI value was equal to or greater than 2.95. This value was chosen as it approximates a difference of three standard deviations in a normal population distribution. For each protein assessed, positive responses to individual peptides by individual donors were compiled. To determine the background response for a given protein, the percent responders for each peptide in the set were averaged and a standard deviation was calculated. SI values for each donor were compiled for each peptide set, and the percent of responders reported.

HLA-DR6(13) = experiment: Peptide binding competition assay, HLA class II; design: species or system human; conditions: competition with standard peptide
Experimental: In addition to the above I-MUNE® assay, peptide binding assays were also performed. The peptide binding assay used during the development of the present invention is known in the art (Southwood et al., J. Immunol., 160:3363-3373 [1998]). Briefly, HLA-DR and -DQ molecules were purified from a panel of EBV transformed cell lines. A competition assay was performed with a characterized standard peptide, and the unknown peptide. The amount of unknown peptide required to compete 50% of the standard peptide binding was then determined (indicated as the IC50).
The IC50 for HLA class II protein binding was determined for peptide epitopes defined by the in two related industrial bacterial proteases (See, FIG. 17). The peptides were tested in a competition assay for binding to 18 different HLA-DR and -DQ proteins. […] This likely explains the association seen in the data for a response to this peptide with HLA-DR6(13) donors (p=0.00015; relative risk=7.22, n=113 donors tested). Those results with values less than 500 nM were considered to be good binders and are highlighted in bold in FIG. 17. Also, in this Figure, degeneracy indicates the number of HLA Class II proteins that bind with an IC50 of less than 500 nM out of the 18 total alleles tested.

[2] = Table 3, Stanford and Sacramento donors

BPN′ Y217L #24: 15-mer epitope peptide number 24 of BPN′ Y217L, amino acids 70-84 (GTVAALNNSIGVLGV)
Average percent response to epitope peptide [1]: 11.69%
IC50 (HLA-DR6(13)): 0.69 nM

BPN′ Y217L#37: 15-mer epitope peptide number 37 of BPN′ Y217L, amino acids 109-123 (NGIEWAIANNMDVIN)
Average percent response to epitope peptide [1]: 12.91%

Ecotin: serine protease inhibitor from E. coli K12; GenBank Accession No. NP—416713
Background % ([1]; Table 3): 5.69%
Response/Peptide ([1]; Table 3): 3.98
Structure Value [1, 2]: 0.64

GTTRLYANASFGLFG (synthetic variant) [I155F]
effect of substitution on percent of responders to the epitope [1]: had little effect

GTTRLYANASIGLFG (listed as Enterobacter cloacae) [Peptide #49]
statistical significance of the peptide response [1]: reached statistical significance using less conservative analyses

GTTRLYANASLGLFG (synthetic variant) [I155L]
effect of substitution on percent of responders to the epitope [1]: had little effect

GTTRLYANASVGLFG (synthetic variant) [I155V]
effect of substitution on percent of responders to the epitope [1]: increased the percent of responders to the modified epitope sequence

GTTRSYANASIGLFG (synthetic variant) [L149S]
effect of substitution on percent of responders to the epitope [1]: had an effect on the epitope response rate

ITPLMKAQSVPGMAV (listed as Enterobacter cloacae) [Peptide #6]
statistical significance of the peptide response [1]: reached statistical significance using less conservative analyses

MLDLATYTAGGLPLQ (listed as Enterobacter cloacae) [Peptide #36]
quantitative response among responders ([1]; DR1+ responders): 7.8
quantitative response among responders ([1]; DR1− responders): 4.42
response to the peptide [1]: 12.11%
statistical significance of the peptide response [1]: significant (p<0.05)

TGGFGSYVAFLPEKQ (TGGFGSYVAFIPEKQ; listed as Enterobacter cloacae) [Peptide #107]
quantitative response among responders ([1]; DR1+ responders): 5.4
quantitative response among responders ([1]; DR1− responders): 4.2
response to the peptide [1]: 12.11%
statistical significance of the peptide response [1]: significant (p<0.05)

hTpo: human thrombopoietin
structure value, in words [1]: comparatively high
Average Background ([1]; Table 2): 2.56
Number of epitope regions ([1]; Table 2): 1
Response per peptide ([1]; Table 2): 2.54
Structure Value ([1]; Table 2): 0.65
Background % ([1]; Table 3): 2.53%
Response/Peptide ([1]; Table 3): 2.24
Structure Value [1, 2]: 0.65
Background +/− sd ([1]; Table 5, background response value): 2.54 +/− 2.23
Responses/peptide found ([1]; Table 5, determined experimentally): 2.51
Average percent response to epitope peptide [1]: 9.18%
